The source of these data is patent US12595269B2, “Morpholine-like monoamine releasers” (Solvonis Therapeutics Ireland Holdings Limited, priority 2022, dated 2026).

Data set [1] has as its target T1, SERT (serotonin transporter) (Homo sapiens, UniProt P31645).
T1 construct: expressed in transfected cells; host or cells: CHO
Description: SERT uptake scintillation proximity assay, inhibition of [3H]-serotonin uptake in hSERT-CHO cells. Type of data set: cell-based. To be noted: read-out: SERT uptake pIC50 (converted). The protocol: Overview: Eighty-eight compounds were tested in SERT (serotonin transporter) and DAT (dopamine transporter) uptake assays (completed as scintillation proximity assays, or SPAs, in a recombinant CHO cell line). Fifty-two compounds were tested in release assays for 5-HT and DA release in rat synaptosomes.
In addition, hSERT-CHO cells were detached using Versene and added at a density of 150,000 cells/mL to the SPA Mixture, which contains the following components in the Assay Buffer described above: 0.5 mg/mL SPA Imaging beads (RPNQ0001, PerkinElmer), 10 μM pargyline and 35 nM of [^3H]-serotonin (NET498, PerkinElmer). The SPA Mixture was added 20 μL/well to 384 well plates containing 0.1 μL/well of test compound in neat DMSO (11 points of 1:5 serial dilution, 0.5% DMSO final), 0.1 μL of DMSO (total uptake), or 0.1 μL of the standard inhibitor indatraline (1 μM, nonspecific uptake). Plates were sealed with a Top-seal A and read using a Microbeta counter (PerkinElmer) after 120 minutes of incubation at room temperature.
For both tests, the raw experimental data (cpm) were elaborated for the determination of pIC50/IC50 values as % inhibition of specific uptake. Concentration-response curves of MDMA, MDDMA, citalopram and GBR-12909 were used as internal standards in all experiments, and the signal window was monitored in each plate performing Z′ calculations, as described in Zhang et al., J. Biomol. Screen., 1999; 4: 67-73.
A general note: Scintillation proximity formats need no separation of bound from free tracer.

Data set [2] in a line: Apparent permeability (Papp AB) in MDCKII cells. The format is in vitro ADME, Canine. To be noted: dog, MDCK; pH 7.4, apical to basolateral, 60 min. The protocol:
Methods and Procedure: This study was conducted in compliance with previously described procedures to assure data integrity and adherence to GLP regulations. The experiments described herein were designed to evaluate the apparent permeability (Papp) of test compounds at pH 7.4. Additionally, the MDCKII-MDR1 cell line (Madin-Darby Canine Kidney clone II cell line heterologously expressing the human P-glycoprotein transporter) and mock cell line MDCKII were used to determine whether a compound acted as a P-gp substrate, in the absence and in the presence of the potent P-gp inhibitor. Test control items (digoxin, metoprolol, and atenolol) and control P-gp inhibitor (GF120918) stock solution were prepared in DMSO. Bidirectional assays (Apical to Basolateral [AB] and Basolateral to Apical [BA]) were run, in both the absence and presence of P-gp inhibitor GF120918 in MDCKII-MDR1 and mock cell line MDCKII, using as transport buffer HBSSH at a pH of 7.4 (n=3).
Compounds were tested at a single concentration (i.e. at 3 or 10 μM) at one time point (i.e. 60 min). Alternative concentrations or time-points may also be investigated. As reference compounds, digoxin (P-gp substrate), atenolol (low permeable compound) and metoprolol (high permeable compound) were included at a single concentration (e.g., 10 or 25 μM) and at single time point (e.g., 60 min). Digoxin transport was evaluated in two directions (apical-to-basolateral [AB] and basolateral-to-apical [BA]) in the absence and presence of GF120918 or in mock cells, MDCKII (n=3). Atenolol and metoprolol were only tested in the AB direction in absence of GF120918 or in mock cells, MDCKII (n=3). The integrity of the cell monolayer was evaluated after the permeability experiment using the paracellular permeability marker Lucifer yellow (LY) in the apical to basolateral direction in each well.
MDCKII or MDCKII-MDRI cells cultivated using DMEM (high glucose, GlutaMAX™ supplemented with pyruvate, 10% FBS HI and Pen/Strep) and seeded onto microporous PET (Polyethylene Terephthalate) membranes in HTS 96-Multiwell Insert plates at density of ˜175,000-245,000 cells/cm^2 (25000-35000 cells/well; 50 μL/well) in DMEM medium and incubated for 3-4 days at 37° C.-5% CO2. Medium was changed a day before the experiment.
Stock solutions of test items were prepared in DMSO at a concentration of 5 or 10 mM and stored at −20° C. until use. The potent P-gp inhibitor, GF120918 (stock solution 10 mM) and the reference controls digoxin, atenolol, metoprolol (stock solutions 3 or 10 mM) were prepared in DMSO and stored at −20° C. until use.
Donor working solutions of test items and reference controls will be prepared at a concentration of 10 or 25 μM, diluting the stock solutions in HBSSH. Receiver working solutions contained transport buffer only. […]
MDCKII and MDCKII-MDR1 cells were preincubated (37° C., 15 to 30 minutes) in receiver working solutions containing transport buffer on apical (A) and basolateral (B) sides. Following pre-incubation, test items and control items (digoxin) transport were measured in two directions (apical to basolateral [AB]) and basolateral to apical [BA]), and these directions were performed in triplicate sets of wells, in both the absence and presence of […] GF120918 or mock MDCKII cells. […] Transport of permeability reference controls, atenolol and metoprolol, were measured in one direction (apical to basolateral [AB]) (n=3). […]

Molecules are shown by their SMILES.

T1 sequence (P31645 whole entry): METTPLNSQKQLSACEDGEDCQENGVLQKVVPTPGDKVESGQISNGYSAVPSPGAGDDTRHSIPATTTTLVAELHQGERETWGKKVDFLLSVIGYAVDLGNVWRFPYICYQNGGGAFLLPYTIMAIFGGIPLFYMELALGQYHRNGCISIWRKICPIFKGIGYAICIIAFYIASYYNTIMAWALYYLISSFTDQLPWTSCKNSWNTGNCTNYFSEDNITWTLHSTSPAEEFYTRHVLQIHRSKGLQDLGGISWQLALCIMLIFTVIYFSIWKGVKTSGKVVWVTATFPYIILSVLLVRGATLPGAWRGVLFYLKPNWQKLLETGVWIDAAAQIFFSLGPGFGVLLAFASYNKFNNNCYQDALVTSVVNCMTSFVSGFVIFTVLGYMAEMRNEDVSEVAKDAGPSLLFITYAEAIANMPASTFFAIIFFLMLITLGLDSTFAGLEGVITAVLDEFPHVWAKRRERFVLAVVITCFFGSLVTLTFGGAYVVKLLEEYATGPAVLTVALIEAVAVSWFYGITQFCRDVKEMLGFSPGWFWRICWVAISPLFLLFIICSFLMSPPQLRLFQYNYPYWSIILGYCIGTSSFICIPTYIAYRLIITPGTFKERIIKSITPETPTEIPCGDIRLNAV

As a reminder, the Papp A→B is the apparent permeability from the apical to the basolateral side of a cell layer. For the compound `Clc1ccc([C@@]23CN[C@@H](CO2)C3)cc1Cl` (single isomer, unassigned) [518A], the IC50 in data set [1] was 81.3 nM. For the same compound, the Papp A→B at 60 min in data set [2] came out at 17.3 ×10⁻⁶ cm/s.
As for `Clc1ccc(C23CNC(CO2)C3)cc1Cl` (stereo not shown) [522A, 1-(3,4-dichlorophenyl)-2-oxa-5-azabicyclo[2.2.1]heptane], the IC50 in data set [1] is 56.2 nM. The Papp A→B at 60 min in data set [2] stood at 9.45 ×10⁻⁶ cm/s.
As for `Clc1ccc([C@]23CN[C@H](CO2)C3)cc1Cl` (single isomer, unassigned) [516A], the IC50 in data set [1] was 46.8 nM. Besides, the Papp A→B at 60 min in data set [2] was determined as 15.8 ×10⁻⁶ cm/s.
For `CNC(C)Cc1ccc2c(c1)OCO2` (stereo not shown) [MDMA, reference compound], the Papp A→B at 60 min in data set [2] is 14 ×10⁻⁶ cm/s.
